Reference: ChEMBL document CHEMBL6182869, “Tetracationic tetraaryltetranaphtho[2,3]porphyrins for photodynamic inactivation against Staphylococcus aureus biofilm” (Eur J Med Chem, 2025)
Activity calls are given as the source filed them. The calls are words filed in the database; no cut-off is given here.

What was measured:
Escherichia coli [1] = test: Antibacterial activity against Escherichia coli assessed as bacterial growth inhibition preincubated with compound for 15 mins followed by light irradiated with 730 nm, 40 J/cm2 and measured after 24 hrs by broth microdilution method; assay type: functional; details: light or radiation study, 24.25 h, time 1455 min
Staphylococcus aureus [2] = test: Antibacterial activity against Staphylococcus aureus assessed as bacterial growth inhibition measured after 24 hrs by broth microdilution method; assay type: functional
[3] = Induction of singlet oxygen quantum yield under 418 nm light irradiation by DPBF based assay; assay type: functional
[4] = Photophysical property of the compound assessed as singlet oxygen quantum yield by UV-vis spectrophotometric analysis; assay type: physicochemical
Candida albicans [5] = test: Antifungal activity against Candida albicans assessed as fungal growth inhibition measured after 24 hrs by broth microdilution method; assay type: functional
Escherichia coli [6] = test: Antibacterial activity against Escherichia coli assessed as bacterial growth inhibition measured after 24 hrs by broth microdilution method; assay type: functional
Staphylococcus aureus [7] = test: Antibacterial activity against Staphylococcus aureus assessed as bacterial growth inhibition preincubated with compound for 15 mins followed by light irradiated with 730 nm, 40 J/cm2 and measured after 24 hrs by broth microdilution method; assay type: functional; details: light or radiation study, 24.25 h, time 1455 min
Candida albicans [8] = test: Antifungal activity against Candida albicans assessed as fungal growth inhibition preincubated with compound for 15 mins followed by light irradiated with 730 nm, 40 J/cm2 and measured after 24 hrs by broth microdilution method; assay type: functional; details: light or radiation study, 24.25 h, time 1455 min
[9] = Photophysical property of the compound assessed as fluorescence quantum yield by UV-vis spectrophotometric analysis; assay type: physicochemical
Staphylococcus aureus [10] = test: Antibiofilm activity against Staphylococcus aureus assessed as disruption of mature biofilm rate at 16 uM preincubated for 15 mins followed by light irradiation with 730 nm, 40 J/cm2 by crystal violet staining based analysis relative to control; assay type: functional; details: 0.25 h
Staphylococcus aureus [11] = test: Antibacterial activity against Staphylococcus aureus assessed as log reduction in bacterial viability at 8 uM preincubated with compound for 15 mins followed by light irradiation with 730 nm, 40 J/cm2 by cell counting analysis relative to control; assay type: functional; details: 0.25 h
Staphylococcus aureus [12] = test: Antibacterial activity against Staphylococcus aureus assessed as reduction in viable bacteria at 0.5 uM preincubated with compound for 15 mins followed by light irradiation with 730 nm, 40 J/cm2 by cell counting analysis relative to control; assay type: functional; details: 0.25 h
Staphylococcus aureus [13] = test: Antibacterial activity against Staphylococcus aureus assessed as eradication rate at 8 uM preincubated with compound for 15 mins followed by light irradiation with 730 nm, 40 J/cm2 relative to control; assay type: functional; details: 0.25 h
Staphylococcus aureus [14] = test: Antibiofilm activity against Staphylococcus aureus assessed as reduction in green fluorescence intensity at 16 uM preincubated for 15 mins followed by light irradiation with 730 nm, 40 J/cm2 by SYTO 9/PI staining based CLSM analysis; assay type: functional, organism-based
HaCaT [15] = test: Phototoxicity in human HaCaT cells assessed as cell viability at 16 uM preincubated for 15 mins by MTT assay; assay type: functional, cell-based
Staphylococcus aureus [16] = test: Bactericidal activity against Staphylococcus aureus at 0.5 to 8 uM; assay type: functional, organism-based; details: dose 0.5-8 µM
Staphylococcus aureus [17] = test: Antibiofilm activity against Staphylococcus aureus assessed as disruption of mature biofilm structure at 16 uM preincubated for 15 mins followed by light irradiation with 730 nm, 40 J/cm2 by crystal violet staining based analysis; assay type: functional, organism-based
Staphylococcus aureus [18] = test: Antibiofilm activity against Staphylococcus aureus assessed as increase in red fluorescence intensity at 16 uM preincubated for 15 mins followed by light irradiation with 730 nm, 40 J/cm2 by SYTO 9/PI staining based CLSM analysis; assay type: functional, organism-based
Staphylococcus aureus [19] = test: Antibacterial activity against Staphylococcus aureus preincubated with compound for 15 mins followed by light irradiation with 730 nm, 40 J/cm2 by cell counting analysis; assay type: functional, organism-based; details: dose 0.5-8 µM
[20] = Dark cytotoxicity against human HaCaT cells assessed as cell viability at 16 uM preincubated for 15 mins by MTT assay; assay type: toxicity, cell-based; details: read-out: Activity
HaCaT [21] = test: Phototoxicity in human HaCaT cells assessed as cell viability at 16 uM preincubated for 15 mins followed by light irradiation with 730 nm, 40 J/cm2 by MTT assay; assay type: functional, cell-based

Compound | MIC (Escherichia coli [1]) [µM] | MIC (Staphylococcus aureus [2]) [µM] | Activity [3] | Activity [4] | MIC (Candida albicans [5]) [µM] | MIC (Escherichia coli [6]) [µM] | MIC (Staphylococcus aureus [7]) [µM] | MIC (Candida albicans [8]) [µM] | Activity [9] | further results
CC[N+](C)(CC)CCCCCOc1ccc(-c2c3nc(c(-c4ccc(OCCCCC[N+](C)(CC)CC)cc4)c4[nH]c(c(-c5ccc(OCCCCC[N+](C)(CC)CC)cc5)c5nc(c(-c6ccc(OCCCCC[N+](C)(CC)CC)cc6)c6[nH]c2c2cc7ccccc7cc62)-c2cc6ccccc6cc2-5)c2cc5ccccc5cc42)-c2cc4ccccc4cc2-3)cc1.[Br-].[Br-].[Br-].[Br-] | > 64 | 32 | Active | 0.67 | 64 | > 64 | 16 | 64 | 0.07 | 
C[N+](C)(C)CCCCOc1ccc(-c2c3nc(c(-c4ccc(OCCCC[N+](C)(C)C)cc4)c4[nH]c(c(-c5ccc(OCCCC[N+](C)(C)C)cc5)c5nc(c(-c6ccc(OCCCC[N+](C)(C)C)cc6)c6[nH]c2c2cc7ccccc7cc62)-c2cc6ccccc6cc2-5)c2cc5ccccc5cc42)-c2cc4ccccc4cc2-3)cc1.[Br-].[Br-].[Br-].[Br-] | > 64 | 32 | Active | 0.41 | 64 | > 64 | 16 | 64 | 0.08 | 
[Br-].[Br-].[Br-].[Br-].c1cc[n+](CCCCCOc2ccc(-c3c4nc(c(-c5ccc(OCCCCC[n+]6ccccc6)cc5)c5[nH]c(c(-c6ccc(OCCCCC[n+]7ccccc7)cc6)c6nc(c(-c7ccc(OCCCCC[n+]8ccccc8)cc7)c7[nH]c3c3cc8ccccc8cc73)-c3cc7ccccc7cc3-6)c3cc6ccccc6cc53)-c3cc5ccccc5cc3-4)cc2)cc1 | > 64 | 64 | Active | 0.5 | 64 | > 64 | 32 | 32 | 0.08 | 
[Br-].[Br-].[Br-].[Br-].c1cc[n+](CCCOc2ccc(-c3c4nc(c(-c5ccc(OCCC[n+]6ccccc6)cc5)c5[nH]c(c(-c6ccc(OCCC[n+]7ccccc7)cc6)c6nc(c(-c7ccc(OCCC[n+]8ccccc8)cc7)c7[nH]c3c3cc8ccccc8cc73)-c3cc7ccccc7cc3-6)c3cc6ccccc6cc53)-c3cc5ccccc5cc3-4)cc2)cc1 | > 64 | 32 | Active | 0.45 | 64 | > 64 | 8 | 32 | 0.07 | Activity (Staphylococcus aureus [10]): 77.5%; log(activity) (Staphylococcus aureus [11]): 3; Activity (Staphylococcus aureus [12]): >75%; Activity (Staphylococcus aureus [13]): >99.9%; Activity (Staphylococcus aureus [14]): Active; Activity (HaCaT [15]): inactive; Activity (Staphylococcus aureus [16]): Active; Activity (Staphylococcus aureus [17]): Active; Activity (Staphylococcus aureus [18]): Active; Activity (Staphylococcus aureus [19]): Dose-dependent-effect; viability at 0.25 h, 16 µM [20]: > 80%; Activity (HaCaT [21]): inactive
[Br-].[Br-].[Br-].[Br-].c1cc[n+](CCCCCCOc2ccc(-c3c4nc(c(-c5ccc(OCCCCCC[n+]6ccccc6)cc5)c5[nH]c(c(-c6ccc(OCCCCCC[n+]7ccccc7)cc6)c6nc(c(-c7ccc(OCCCCCC[n+]8ccccc8)cc7)c7[nH]c3c3cc8ccccc8cc73)-c3cc7ccccc7cc3-6)c3cc6ccccc6cc53)-c3cc5ccccc5cc3-4)cc2)cc1 | > 64 | 64 | Active | 0.52 | 64 | > 64 | 64 | 64 | 0.07 | 
[Br-].[Br-].[Br-].[Br-].c1cc[n+](CCCCOc2ccc(-c3c4nc(c(-c5ccc(OCCCC[n+]6ccccc6)cc5)c5[nH]c(c(-c6ccc(OCCCC[n+]7ccccc7)cc6)c6nc(c(-c7ccc(OCCCC[n+]8ccccc8)cc7)c7[nH]c3c3cc8ccccc8cc73)-c3cc7ccccc7cc3-6)c3cc6ccccc6cc53)-c3cc5ccccc5cc3-4)cc2)cc1 | > 64 | 64 | Active | 0.45 | 64 | > 64 | 32 | 32 | 0.08 | 
